{"source": "patent US8071540B2", "about": "“Virus derived antimicrobial peptides” (priority 2007, dated 2011)", "key": {"[1]": {"tested_on": "P. aeruginosa and primary human skin fibroblasts", "details": "co-culture; cited from earlier work"}, "[2]": {"tested_on": "Aspergillus fumigatus", "assay": "In vitro fungal killing assay", "details": "2 isolates"}, "[3]": {"tested_on": "C. tropicalis"}, "[4]": {"tested_on": "Methicillin Resistant S. aureus", "type": "cell-based, Staphylococcus aureus", "design": "unit not given here", "details": "99.9% killing"}, "[5]": {"tested_on": "vaccine strain of B. anthracis", "type": "cell-based, Bacillus anthracis", "details": "FIG. 26"}, "[6]": {"tested_on": "Indonesia H5N1", "type": "in vivo, mice", "details": "peptide added to virus just prior to intranasal dose, FIG. 25"}, "[7]": {"tested_on": "Indonesia H5N1", "type": "cell-based, influenza virus", "details": "eleven two-fold serial dilutions from 50 μM, FIG. 24"}, "[8]": {"tested_on": "P. aeruginosa", "details": "intravenous administration; cited from earlier work"}, "[9]": {"tested_on": "C. lusitaniae", "assay": "In vitro fungal killing assay", "details": "6 μM, RPMI 1640, 37° C.; all isolates"}, "[10]": {"tested_on": "Pseudomonas aeruginosa", "assay": "Bacterial lysis (broth dilution) assay, MBC", "type": "cell-based", "design": "MBC, Psuedomonas aeruginosa, 0 mM NaCl / MBC, Psuedomonas aeruginosa, 150 mM NaCl: unit not given here", "details": "99.9% killing"}, "[11]": {"tested_on": "Staphylococcus aureus", "assay": "Bacterial lysis (broth dilution) assay, MBC", "type": "cell-based", "details": "99.9% killing", "from_the_text": "The assays for growth inhibition of a microbial target can be used to derive a minimum bactericidal concentration (MBC) value for the peptide, i.e., the concentration of peptide required to kill 99.9% (3-log decrease) of the microbial sample being tested. This value is well known to those in the art as representative of the effectiveness of a particular antimicrobial agent (e.g., an antibiotic) against a particular organism or group of organisms. In assays to detect the MBC of a peptide, growth inhibition of a bacterial population also can be measured with reference to the number of colony forming units (cfu) after exposure to a peptide relative to a control experiment without a peptide.\nBacterial lysis assay. Bacterial lysis assays were conducted in a manner similar to that described previously (Lehrer, R. I., M. E. Selsted, D. Szklarek, and F. J. 1983. Infect. Immun. 42: 10-4, 1983; Miller, M. A., R. F. Garry, J. M. Jaynes, and R. C. Montelaro, AIDS Res Hum Retroviruses 7:511-519, 1991). Bacterial suspensions were cultured in Luria-Bertani Broth to mid-log growth phase and washed by two cycles of centrifugation and suspension in 10 mM phosphate buffer. The Abs600 of the suspension was adjusted with 10 mM phosphate buffer such that, upon dilution, 5-10×10^5 cfu/mL would be treated in the assay. Bacteria were incubated for 1 h with two-fold dilutions of peptides (100 μM to 100 nM) in 96-well plates using 10 mM phosphate buffer, pH 7.2, as a diluent. Ten-fold dilutions of bacteria were performed to 1:1 000; a 100 μl aliquot from each condition was spread on the surface of tryptic soy agar plates (Difco, Detroit, Mich.) which were incubated overnight. Colonies of surviving bacteria (cfu, colony-forming units) were counted and compared to untreated controls to determine the amount of peptide-induced killing under each condition. Log killing is defined as the log of the ratio of cfu present before and after treatment with peptide. The minimal bactericidal concentration, MBC, is the peptide concentration at which 99.9% (three log) killing is achieved (Pearson et al., Antimicrob. Agents Chemother. 18: 699-708, 1980).\nResults. Representative gram positive (S. aureus) and gram negative (P. aeruginosa) clinical isolates were used as the index bacteria to survey the peptides described herein.\nA limitation of many host-derived antimicrobial peptides is their decreased activity at physiologic (150 mM) NaCl concentration. See Friedrich et al., Antimicrobial Agents and Chemotherapy 43:1542-1548. The peptides WLSA-5 (SEQ ID NO: 3) and LL37 were tested against the two index strains at physiologic NaCl. […] The activity of antimicrobial peptides described herein were compared to an expanded list of clinical bacterial isolates. These are summarized in Table 2 by comparing their MBCs in phosphate buffer alone (low salt) and phosphate buffer containing 150 mM NaCl (physiologic conditions). Inspection of this table would lead one skilled in the art to conclude that the activity of antimicrobial peptides described herein compare favorably to the host derived antimicrobial peptides as it relates to the spectrum and potency of antimicrobial activity."}, "[12]": {"tested_on": "C. krusei"}, "[13]": {"tested_on": "C. albicans", "assay": "In vitro fungal killing assay", "details": "6 μM, RPMI 1640, 37° C.; reference strain SC5314 and all clinical isolates"}, "[14]": {"tested_on": "Cryptococcocus neoformans", "assay": "In vitro fungal killing assay", "details": "3 isolates"}, "[15]": {"details": "0 mM NaCl (10 mM phosphate buffer)"}}, "note": "Where no end group is shown, it is not given here."}
{"sequence": "RRWVRRVRRVWRRVVRVVRRWVRR [WLBU-2, RRWVRRVRRVWRRVVRVVRRWVRR]", "values": [{"measurement": "antibacterial selectivity", "setting": "[1]", "result": "highest antibacterial selectivity of all peptides evaluated"}, {"measurement": "concentration to which A. fumigatus isolates were resistant", "setting": "[2]", "result": "> 100", "unit": "µM"}, {"measurement": "concentration that completely killed 75% of the isolates, C. tropicalis", "setting": "[3]; RPMI 1640, 37° C.", "result": 3, "unit": "µM"}, {"measurement": "concentration that completely killed the remaining isolates, C. tropicalis", "setting": "[3]; RPMI 1640, 37° C.", "result": 25, "unit": "µM"}, {"measurement": "minimum fungicidal concentration (MFC, >99.9% kill), C. tropicalis", "setting": "[3]; remaining isolates", "result": "≤ 6", "unit": "µM"}, {"measurement": "MBC, Methicillin Resistant S. aureus, 0 mM NaCl", "setting": "[4]; [15]", "result": 200}, {"measurement": "MBC, Methicillin Resistant S. aureus, 150 mM NaCl", "setting": "[4]; 150 mM NaCl (physiologic)", "result": 100}, {"measurement": "inhibition of vegetative form", "setting": "[5]", "result": "inhibit the vegetative form of B. anthracis"}, {"measurement": "infectivity of virus in mice", "setting": "[6]", "result": "inactivate the infectivity of virus"}, {"measurement": "infectious virus plaque formation", "setting": "[7]", "result": "dose-dependent decrease in infectious virus plaque formation"}, {"measurement": "protection in murine model", "setting": "[8]", "result": "protection against a lethal challenge of P. aeruginosa"}, {"measurement": "time to fully fungicidal effect, C. lusitaniae", "setting": "[9]", "result": "≤ 5", "unit": "min"}, {"measurement": "MBC, Psuedomonas aeruginosa, 0 mM NaCl", "setting": "[10]; [15]", "result": 200}, {"measurement": "MBC, Psuedomonas aeruginosa, 150 mM NaCl", "setting": "[10]; 150 mM NaCl (physiologic)", "result": 100}, {"measurement": "MBC, Staphylococcus aureus, 0 mM NaCl", "setting": "[11]; [15]", "result": 1000, "unit": "nM"}, {"measurement": "MBC, Staphylococcus aureus, 150 mM NaCl", "setting": "[11]; 150 mM NaCl (physiologic)", "result": 600, "unit": "nM"}, {"measurement": "concentration that completely killed 75% of the isolates, C. krusei", "setting": "[12]; RPMI 1640, 37° C.", "result": 3, "unit": "µM"}, {"measurement": "concentration that completely killed the remaining isolates, C. krusei", "setting": "[12]; RPMI 1640, 37° C.", "result": 25, "unit": "µM"}, {"measurement": "minimum fungicidal concentration (MFC, >99.9% kill), C. krusei", "setting": "[12]; remaining isolates", "result": "≤ 6", "unit": "µM"}, {"measurement": "time to fully fungicidal effect, C. albicans", "setting": "[13]", "result": "≤ 5", "unit": "min"}, {"measurement": "concentration that completely killed C. neoformans", "setting": "[14]", "result": 3, "unit": "µM"}]}
